These results are taken from patent publication US12421252B2, “Spiro (isobenzofuranazetidine) compounds for the treatment of autoimmune disease” (Hoffmann-La Roche Inc., priority 2020, dated 2025).

The assay deals with T1, human TLR8 (Homo sapiens, UniProt Q9NR97).
T1 sequence (Q9NR97 27-1041): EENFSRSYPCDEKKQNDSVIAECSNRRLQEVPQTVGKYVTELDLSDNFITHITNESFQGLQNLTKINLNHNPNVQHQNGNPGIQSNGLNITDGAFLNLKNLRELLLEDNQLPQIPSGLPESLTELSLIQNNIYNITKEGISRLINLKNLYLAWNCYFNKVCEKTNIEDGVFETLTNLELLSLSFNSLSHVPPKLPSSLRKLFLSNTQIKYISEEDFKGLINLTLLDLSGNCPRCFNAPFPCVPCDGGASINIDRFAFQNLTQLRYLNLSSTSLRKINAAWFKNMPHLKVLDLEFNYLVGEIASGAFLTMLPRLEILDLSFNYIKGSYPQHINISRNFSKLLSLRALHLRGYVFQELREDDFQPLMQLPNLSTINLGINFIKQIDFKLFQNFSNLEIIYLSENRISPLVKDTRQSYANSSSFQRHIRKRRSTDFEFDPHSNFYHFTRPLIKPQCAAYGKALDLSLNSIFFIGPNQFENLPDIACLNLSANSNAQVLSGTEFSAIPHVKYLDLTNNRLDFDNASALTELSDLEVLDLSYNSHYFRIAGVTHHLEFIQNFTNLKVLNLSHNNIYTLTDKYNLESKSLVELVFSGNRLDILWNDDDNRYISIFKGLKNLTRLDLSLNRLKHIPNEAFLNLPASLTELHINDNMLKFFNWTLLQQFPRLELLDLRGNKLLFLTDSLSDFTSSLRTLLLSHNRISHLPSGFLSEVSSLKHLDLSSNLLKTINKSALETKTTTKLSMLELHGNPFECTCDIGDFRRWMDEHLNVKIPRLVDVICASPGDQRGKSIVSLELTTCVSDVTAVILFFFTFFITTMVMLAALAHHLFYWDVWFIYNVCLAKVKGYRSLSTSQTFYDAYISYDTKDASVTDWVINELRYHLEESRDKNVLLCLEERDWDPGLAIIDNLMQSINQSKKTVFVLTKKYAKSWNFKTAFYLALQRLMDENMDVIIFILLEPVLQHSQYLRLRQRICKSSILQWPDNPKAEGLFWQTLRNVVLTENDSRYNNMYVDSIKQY
The assay is described as follows: HEK293-Blue-hTLR-8 cells assay. As to conditions: HEK293-Blue-hTLR8 cells, R848 stimulation, 20 hrs, SEAP reporter; read-out: HEK/hTLR8 IC50. It is filed as cell-based. The source says: HEK293-Blue-hTLR-8 cells assay:
A stable HEK293-Blue-hTLR-8 cell line was purchased from InvivoGen (Cat. #: hkb-htlr8, San Diego, California, USA). These cells were originally designed for studying the stimulation of human TLR8 by monitoring the activation of NF-κB. A SEAP (secreted embryonic alkaline phosphatase) reporter gene was placed under the control of the IFN-β minimal promoter fused to five NF-κB and AP-1-binding sites. The SEAP was induced by activating NF-κB and AP-1 via stimulating HEK-Blue hTLR8 cells with TLR8 ligands. Therefore the reporter expression was declined by TLR8 antagonist under the stimulation of a ligand, such as R848, for incubation of 20 hrs. The cell culture supernatant SEAP reporter activity was determined using QUANTI-Blue™kit (Cat. #: rep-qb1, Invivogen, San Diego, Ca, USA) at a wavelength of 640 nm, a detection medium that turns purple or blue in the presence of alkaline phosphatase.
HEK293-Blue-hTLR8 cells were incubated at a density of 250,000˜450,000 cells/mL in a volume of 170 μL in a 96-well plate in Dulbecco's Modified Eagle's medium (DMEM) containing 4.5 g/L glucose, 50 U/mL penicillin, […], […], 2 mM L-glutamine, 10% (v/v) heat-inactivated fetal bovine serum with addition of 20 μL test compound in a serial dilution in the presence of final DMSO at 1% and 10 μL of 60 uM R848 in above DMEM, perform incubation under 37° C. in a CO2 incubator for 20 hrs. Then 20 μL of the supernatant from each well was incubated with 180 μL Quanti-blue substrate solution at 37° C. for 2 hrs and the absorbance was read at 620-655 nm using a spectrophotometer. The signaling pathway that TLR8 activation leads to downstream NF-κB activation has been widely accepted, and therefore similar reporter assay was modified for evaluating TLR8 antagonist.
With `C[C@@H]1CN(c2ccc(C#N)n3ncc(F)c23)C[C@H](CN2CC3(C2)OCc2cc(N4CC(C)(N)C4)ccc23)O1` [Example 1, 4-[(2S,6R)-2-[[6-(3-amino-3-methyl-azetidin-1-yl)spiro[1H-isobenzofuran-3,3′-azetidine]-1′-yl]methyl]-6-methyl-morpholin-4-yl]-3-fluoro-pyrazolo[1,5-a]pyridine-7-carbonitrile], the IC50 was 82 nM.
As for `C[C@@H]1CN(c2ccc(C#N)n3ncc(F)c23)C[C@H](CN2CC3(C2)OCc2cc(N4CC5(CN(C)C5)C4)ccc23)O1` [Example 2, 3-fluoro-4-[(2R,6S)-2-methyl-6-[[6-(6-methyl-2,6-diazaspiro[3.3]heptan-2-yl)spiro[1H-isobenzofuran-3,3′-azetidine]-1′-yl]methyl]morpholin-4-yl]pyrazolo[1,5-a]pyridine-7-carbonitrile], the IC50 came out at 25 nM.
For `C[C@@H]1CN(c2ccc(C#N)n3ncc(F)c23)C[C@H](CN2CC3(C2)OCc2cc(N[C@H]4CNC[C@H]4F)ccc23)O1` [Example 3, 3-fluoro-4-[(2S,6R)-2-[[6-[[(3S,4R)-4-fluoropyrrolidin-3-yl]amino]spiro[1H-isobenzofuran-3,3′-azetidine]-1′-yl]methyl]-6-methyl-morpholin-4-yl]pyrazolo[1,5-a]pyridine-7-carbonitrile], the IC50 is 51 nM.
The result for `C[C@@H]1CN(c2ccc(C#N)n3ncc(F)c23)C[C@H](CN2CC3(C2)OCc2cc(N4CC5(CNCCO5)C4)ccc23)O1` [Example 4, 3-fluoro-4-[(2R,6S)-2-methyl-6-[[6-(5-oxa-2,8-diazaspiro[3.5]nonan-2-yl)spiro[1H-isobenzofuran-3,3′-azetidine]-1′-yl]methyl]morpholin-4-yl]pyrazolo[1,5-a]pyridine-7-carbonitrile] reads 35 nM.
The result for `C[C@@H]1CN(c2ccc(C#N)n3ncc(F)c23)C[C@H](CN2CC3(C2)OCc2cc(N4CC[C@](C)(N)C4)ccc23)O1` [Example 5, 4-[(2S,6R)-2-[[6-[(3S)-3-amino-3-methyl-pyrrolidin-1-yl]spiro[1H-isobenzofuran-3,3′-azetidine]-1′-yl]methyl]-6-methyl-morpholin-4-yl]-3-fluoro-pyrazolo[1,5-a]pyridine-7-carbonitrile] reads 22 nM; that for `C[C@@H]1CN(c2ccc(C#N)n3ncc(F)c23)C[C@H](CN2CC3(C2)OCc2cc(N4CCNCC4)ccc23)O1` [Example 6, 3-fluoro-4-[(2R,6S)-2-methyl-6-[(6-piperazin-1-ylspiro[1H-isobenzofuran-3,3′-azetidine]-1′-yl)methyl]morpholin-4-yl]pyrazolo[1,5-a]pyridine-7-carbonitrile], 24 nM; that for `C[C@@H]1CN(c2ccc(C#N)n3nccc23)C[C@H](CN2CC3(C2)OCc2cc(N4CC5(CNCCO5)C4)ccc23)O1` [Example 7, 4-[(2R,6S)-2-methyl-6-[[6-(5-oxa-2,8-diazaspiro[3.5]nonan-2-yl)spiro[1H-isobenzofuran-3,3′-azetidine]-1′-yl]methyl]morpholin-4-yl]pyrazolo[1,5-a]pyridine-7-carbonitrile], 58 nM.
The result for `C[C@@H]1CN(c2ccc(C#N)n3ncc(F)c23)C[C@H](CN2CC3(C2)OCc2cc(N4CC(N)C4)ccc23)O1` [Example 9, 4-[(2S,6R)-2-[[6-(3-aminoazetidin-1-yl)spiro[1H-isobenzofuran-3,3′-azetidine]-1′-yl]methyl]-6-methyl-morpholin-4-yl]-3-fluoro-pyrazolo[1,5-a]pyridine-7-carbonitrile] reads 45 nM; that for `C[C@@H]1CN(c2ccc(C#N)n3ncc(F)c23)C[C@H](CN2CC3(C2)OCc2cc(N4C[C@H](N)[C@@H](O)C4)ccc23)O1` [Example 10, 4-[(2S,6R)-2-[[6-[(3S,4S)-3-amino-4-hydroxy-pyrrolidin-1-yl]spiro[1H-isobenzofuran-3,3′-azetidine]-1′-yl]methyl]-6-methyl-morpholin-4-yl]-3-fluoro-pyrazolo[1,5-a]pyridine-7-carbonitrile], 142 nM; that for `C[C@@H]1CN(c2ccc(C#N)n3ncc(F)c23)C[C@H](CN2CC3(C2)OCc2cc(N4CC5(CNC5)C4)ccc23)O1` [Example 12, 4-[(2S,6R)-2-[[6-(2,6-diazaspiro[3.3]heptan-2-yl)spiro[1H-isobenzofuran-3,3′-azetidine]-1′-yl]methyl]-6-methyl-morpholin-4-yl]-3-fluoro-pyrazolo[1,5-a]pyridine-7-carbonitrile], 37 nM.
Regarding `C[C@@H]1CN(c2cc(=O)n(C)c3ncccc23)C[C@H](CN2CC3(C2)OCc2cc(N4CC(N)C4)ccc23)O1` [Example 13, 4-[(2S,6R)-2-[[6-(3-aminoazetidin-1-yl)spiro[1H-isobenzofuran-3,3′-azetidine]-1′-yl]methyl]-6-methyl-morpholin-4-yl]-1-methyl-1,8-naphthyridin-2-one], the IC50 is 409 nM.
On to `[2H]c1ccc2c(N3C[C@H](CN4CC5(C4)OCc4cc(N6C[C@@H](N)[C@H](OC)C6)ccc45)O[C@H](C)C3)ccc(C#N)c2n1` [Example 16, 5-[(2S,6R)-2-[[6-[(3R,4R)-3-amino-4-methoxy-pyrrolidin-1-yl]spiro[1H-isobenzofuran-3,3′-azetidine]-1′-yl]methyl]-6-methyl-morpholin-4-yl]-2-deuterio-quinoline-8-carbonitrile], for which the IC50 amounted to 13 nM.
The result for `[2H]c1ccc2c(N3C[C@H](CN4CC5(C4)OCc4cc(N6C[C@H]7NCCO[C@@H]7C6)ccc45)O[C@H](C)C3)ccc(C#N)c2n1` [Example 17, 5-[(2S,6R)-2-[[6-[(4aR,7aR)-3,4,4a,5,7,7a-hexahydro-2H-pyrrolo[3,4-b][1,4]oxazin-6-yl]spiro[1H-isobenzofuran-3,3′-azetidine]-1′-yl]methyl]-6-methyl-morpholin-4-yl]-2-deuterio-quinoline-8-carbonitrile] reads 9 nM; that for `[2H]c1ccc2c(N3C[C@H](CN4CC5(C4)OCc4cc(N6CCNCC6)ccc45)O[C@H](C)C3)ccc(C#N)c2n1` [Example 18, 2-deuterio-5-[(2R,6S)-2-methyl-6-[(6-piperazin-1-ylspiro[1H-isobenzofuran-3,3′-azetidine]-1′-yl)methyl]morpholin-4-yl]quinoline-8-carbonitrile], 10 nM; that for `C[C@@H]1CN(c2ccc(C#N)n3nccc23)C[C@H](CN2CC3(C2)OCc2cc(N4CC(N)C4)ccc23)O1` [Example 19, 4-[(2S,6R)-2-[[6-(3-aminoazetidin-1-yl)spiro[1H-isobenzofuran-3,3′-azetidine]-1′-yl]methyl]-6-methyl-morpholin-4-yl]pyrazolo[1,5-a]pyridine-7-carbonitrile], 99 nM.
The result for `[2H]c1ccc2c(N3C[C@H](CN4CC5(C4)OCc4cc(N6CC(N)C6)cnc45)O[C@H](C)C3)ccc(C#N)c2n1` [Example 20, 5-[(2S,6R)-2-[[3-(3-aminoazetidin-1-yl)spiro[5H-furo[3,4-b]pyridine-7,3′-azetidine]-1′-yl]methyl]-6-methyl-morpholin-4-yl]-2-deuterio-quinoline-8-carbonitrile] reads 30 nM.
